# According to patent EP4464714A1, “SCREENING METHOD FOR CELL-REPELLING PEPTIDES” (Karlsruher Institut für Technologie, priority 2023, dated 2024):
# “Also recorded” adds a separate entry of the source. Read-outs that look alike come from different tables or passages of the source.
# How the values were obtained:
# pancreatic tumour = conditions: human (1) or murine (2) background; Matzke-Ogi et al. 2016; cited from earlier work
# CD44v6 [1] = conditions: murine (2) background; Matzke-Ogi et al. 2016; cited from earlier work
# [2] = system: SW620 colorectal cancer cells expressing the TOP-GFP construct; assay: Formation of cell patterns on alternating peptide patterns, continuous fluorescence detection (live cell imaging); type: cell-based; conditions: patterns of 3 sp × 3 sp and 1 sp (30 µm); up to 24 hours of incubation; Fig. 10
# From the text: The settlement of cells on alternating patterns of the cell-repellent and cell-adhesive peptides IAMTPPNATEASKPQ and FLCSLFAPVCLDRPI, respectively, were examined over time (Fig. 10). […] Peptide patterns in the form of the letters KI were made of squares of 3 sp × 3 sp. The cellular patterns are clearly distinguishable as long as the area of the cell-repellent peptide has a size of 30 µm in diameter (1 sp). To follow the formation of such cellular patterns, the behaviour of cells was examined over time (continuous fluorescence detection). Fig. 10b, 10c, 10d and 10e show the different states of the same chip fragment with cell-repellent peptides at different incubation times. Relatively quickly, in the first minutes after seeding, cells randomly distribute over the entire surface (Fig. 10b) and start to form clusters (Fig. 10c), which adhere to the bottom. After that, the cell clusters leave the area of peptides with cell repulsion (Fig. 10d). […]
# On the day of incubation, cells were detached using Accutase followed by selection in serum-containing medium (DMEM). […] After 24 hours, the plates were either analysed using confocal microscopy or fixed.
# For imaging of the cells, a Zeiss LSM800 confocal microscope was used. […] The microscopic slide was then transferred to a live cell incubation chamber (37°C) and observed via continuous fluorescence detection for a period of 24 hours.
# [3] = system: SW620 colorectal cancer cells expressing the TOP-GFP construct; assay: High-throughput screening for cell repulsion/adhesion on a high-density peptide chip, fluorescence detection; type: cell-based; conditions: incubated for 24 hours on the peptide chip; for cell adhesion / cell repulsion on peptide spots, measured by the strength of the fluorescent signal: 1×10^7 cells in 3 ml, 30 µm × 30 µm spots
# CD44v6 [4] = conditions: human (1) background; Matzke-Ogi et al. 2016; cited from earlier work
substance,measurement,setting,value
QETWFQNGWQGKNP,pancreatic tumour growth and metastasis,pancreatic tumour,inhibit pancreatic tumour growth and metastasis
same,co-receptor function of CD44v6 of the receptor tyrosine kinase MET,CD44v6 [1],inhibit the co-receptor function of CD44v6
FLCSLFAPVCLDRPI,settlement of cells on alternating peptide patterns over time,[2],cell-adhesive
NGWQG,pancreatic tumour growth and metastasis,pancreatic tumour,inhibit pancreatic tumour growth and metastasis
same,co-receptor function of CD44v6 of the receptor tyrosine kinase MET,CD44v6 [1],inhibit the co-receptor function of CD44v6
SDKKPVAHVVANPQAE [SEQ ID No. 11],"cell adhesion / cell repulsion on peptide spots, measured by the strength of the fluorescent signal",[3],repulsive
QNGNQGKN,"cell adhesion / cell repulsion on peptide spots, measured by the strength of the fluorescent signal",[3],strong cell repulsion
"QETWFQNGNQGKN [modified peptide of …, replacement of the amino acid W by N]","cell adhesion / cell repulsion on peptide spots, measured by the strength of the fluorescent signal",[3],maximum cell repulsion
AIKNLPPPTKGQEGS,"cell adhesion / cell repulsion on peptide spots, measured by the strength of the fluorescent signal",[3],strongest cell-repellent properties
PCQRETPEGAEAKP [SEQ ID No. 13],"cell adhesion / cell repulsion on peptide spots, measured by the strength of the fluorescent signal",[3],repulsive
NRWHE,pancreatic tumour growth and metastasis,pancreatic tumour,inhibit pancreatic tumour growth and metastasis
same,co-receptor function of CD44v6 of the receptor tyrosine kinase MET,CD44v6 [4],inhibit the co-receptor function of CD44v6
KENGDKKIVPKKKKP,cell pattern (filling of peptide spots),[3]; Fig. 2,well-defined island shape
"YPYDVPDYA [HA epitope, reference compound]","cell adhesion / cell repulsion on peptide spots, measured by the strength of the fluorescent signal",[3],strong cell-attractive; also recorded: highest adhesion to cells
IAMTPPNATEASKPQ,settlement of cells on alternating peptide patterns over time,[2],cell-repellent
HPGSAVSASNAIKNL,"cell adhesion / cell repulsion on peptide spots, measured by the strength of the fluorescent signal",[3],strongest cell-repellent properties
QETWF,"cell adhesion / cell repulsion on peptide spots, measured by the strength of the fluorescent signal",[3],top ten cell-repellent peptides
EVK,"cell adhesion / cell repulsion on peptide spots, measured by the strength of the fluorescent signal",[3],repellent motif for cells
KEQWFGNRWHEGYR,pancreatic tumour growth and metastasis,pancreatic tumour,inhibit pancreatic tumour growth and metastasis
same,co-receptor function of CD44v6 of the receptor tyrosine kinase MET,CD44v6 [4],inhibit the co-receptor function of CD44v6
TPPNATEASKPQGTT,"cell adhesion / cell repulsion on peptide spots, measured by the strength of the fluorescent signal",[3],strongest cell-repellent properties
